Data: ChEMBL document CHEMBL5678796, “A highly potent and selective farnesyltransferase inhibitor ABT-100 in preclinical studies” (Anticancer Drugs, 2005)

What was measured:
[1] = Inhibition of FTase in H-Ras transformed mouse NIH3T3 cells using Ras as substrate assessed as inhibition of substrate prenylation in presence of 10% bovine serum by immunoblot analysis; assay type: cell-based
[2] = Inhibition of FTase (unknown origin); design: species or system Homo sapiens
[3] = tested on: HCT-116; experiment: Antitumor activity against human HCT-116 cells xenografted in nu/nu CD1 mouse assessed as tumor volume at 30 mg/kg, ip preinoculated with cells for 5 days followed by once every 3 days compound administration for 4 times and measured on day 22 (reference value: 1861 +/- 410 mm^3); assay type: functional; conditions: time 22 day
[4] = tested on: HCT-116; experiment: Antitumor activity against human HCT-116 cells xenografted in nu/nu CD1 mouse assessed as reduction in tumor volume by measuring test to control ratio at 30 mg/kg, ip preinoculated with cells for 5 days followed by once every 3 days compound administration for 4 times and measured on day 22; assay type: functional; conditions: time 22 day
[5] = tested on: HCT-116; experiment: Antitumor activity against human HCT-116 cells xenografted in nu/nu CD1 mouse assessed as increase in life span at 30 mg/kg, ip preinoculated with cells for 5 days followed by once every 3 days compound administration for 4 times and measured on day 22 relative to vehicle in time to 1 cm3 tumor; assay type: functional; conditions: HCT-116, 528 h, time 22 day
[6] = tested on: HCT-116; experiment: Antitumor activity against human HCT-116 cells xenografted in nu/nu CD1 mouse assessed as increase in life span at 50 mg/kg, ip preinoculated with cells for 14 days followed by once every 4 days compound administration for 4 times and measured on day 40 relative to vehicle in time to 1 cm^3 tumor; assay type: functional; conditions: HCT-116, 960 h, time 40 day
[7] = Inhibition of recombinant bovine FTase incubated for 30 mins in presence of [3H]FPP by SPA based Topcount scintillation plate reader analysis; design: species or system Bos taurus
[8] = Inhibition of recombinant human FTase incubated for 30 mins in presence of [3H]FPP by SPA based Topcount scintillation plate reader analysis
[9] = Inhibition of recombinant bovine GGTase I incubated for 30 min sin presence of [3H]FPP by SPA based Topcount scintillation plate reader analysis; design: species or system Bos taurus
[10] = tested on: NIH3T3; experiment: Inhibition of anchorage-independent growth in H-Ras transformed mouse NIH3T3 cells assessed as inhibition of colony formation incubated for 14 days in presence of 10% bovine serum by imaging based soft agar colony formation assay; assay type: functional, cell-based; conditions: NIH3T3, 336 h
[11] = tested on: HCT-116; experiment: Inhibition of anchorage-independent growth in human HCT-116 cells assessed as inhibition of colony formation incubated for 14 days in presence of 10% FBS by imaging based soft agar colony formation assay; assay type: functional, cell-based; conditions: HCT-116, 336 h
[12] = tested on: NIH3T3; experiment: Inhibition of anchorage-independent growth in H-Ras transformed mouse NIH3T3 cells assessed as inhibition of colony formation in presence of 10% bovine serum; assay type: functional, cell-based
[13] = tested on: HCT-116; experiment: Inhibition of anchorage-independent growth in human HCT-116 cells assessed as inhibition of colony formation in presence of 10% FBS; assay type: functional, cell-based
[14] = Inhibition of GGTase in H-Ras transformed mouse NIH3T3 cells using Rap 1A as substrate assessed as inhibition of substrate prenylation in presence of 10% bovine serum by immunoblot analysis; assay type: cell-based
[15] = Inhibition of FTase in human HCT-116 cells expressing low level of P-gp1 using Ras as substrate assessed as inhibition of substrate post-translation processing in presence of 10% FBS by immunoblot analysis; assay type: cell-based
[16] = Inhibition of FTase in human HCT-116 cells expressing low level of P-gp1 using Ras as substrate assessed as inhibition of substrate post-translation processing in presence of 20% human serum by immunoblot analysis; assay type: cell-based
[17] = Inhibition of FTase in human DLD-1 cells expressing moderate level of P-gp1 using Ras as substrate assessed as inhibition of substrate post-translation processing in presence of 10% FBS by immunoblot analysis; assay type: cell-based
[18] = Inhibition of FTase in human DLD-1 cells expressing moderate level of P-gp1 using Ras as substrate assessed as inhibition of substrate post-translation processing in presence of 10% human serum by immunoblot analysis; assay type: cell-based
[19] = Inhibition of FTase in human HCT-15 cells expressing high level of P-gp1 using Ras as substrate assessed as inhibition of substrate post-translation processing in presence of 10% FBS by immunoblot analysis; assay type: cell-based
[20] = Inhibition of FTase in human HCT-15 cells expressing high level of P-gp1 using Ras as substrate assessed as inhibition of substrate post-translation processing in presence of 20% human serum by immunoblot analysis; assay type: cell-based
[21] = Ratio of EC50 for inhibition of FTase in human HCT-116 cells expressing low level of P-gp1 using Ras as substrate assessed as inhibition of substrate post-translation processing in presence of 20% human serum to EC50 for inhibition of FTase in human HCT-116 cells expressing low level of P-gp1 using Ras as substrate assessed as inhibition of substrate post-translation processing in presence of 10% …; conditions: condition cancer
[22] = Ratio of EC50 for inhibition of FTase in human DLD-1 cells expressing moderate level of P-gp1 using Ras as substrate assessed as inhibition of substrate post-translation processing in presence of 20% human serum to EC50 for inhibition of FTase in human DLD-1 cells expressing moderate level of P-gp1 using Ras as substrate assessed as inhibition of substrate post-translation processing in presence …; conditions: condition cancer
[23] = Ratio of EC50 for inhibition of FTase in human HCT-15 cells expressing high level of P-gp1 using Ras as substrate assessed as inhibition of substrate post-translation processing in presence of 20% human serum to EC50 for inhibition of FTase in human HCT-15 cells expressing high level of P-gp1 using Ras as substrate assessed as inhibition of substrate post-translation processing in presence of 10% …; conditions: condition cancer
[24] = tested on: HCT-116; experiment: Antitumor activity against human HCT-116 cells xenografted in nu/nu CD1 mouse assessed as tumor volume at 100 mg/kg, sc preinoculated with cells for 5 days followed by twice daily compound administration for 21 days and measured on day 22 (reference value: 1436 +/- 263 mm^3); assay type: functional; conditions: time 22 day
[25] = tested on: HCT-116; experiment: Antitumor activity against human HCT-116 cells xenografted in nu/nu CD1 mouse assessed as reduction in tumor volume by measuring test to control ratio at 100 mg/kg, sc preinoculated with cells for 5 days followed by twice daily compound administration for 21 days and measured on day 22; assay type: functional; conditions: time 22 day
[26] = tested on: HCT-116; experiment: Antitumor activity against human HCT-116 cells xenografted in nu/nu CD1 mouse assessed as increase in life span at 100 mg/kg, sc preinoculated with cells for 5 days followed by twice daily compound administration for 21 days and measured on day 22 relative to vehicle in time to 1 cm3 tumor; assay type: functional; conditions: HCT-116, 528 h, time 22 day

For Cn1cncc1C(O)(COc1ccc(C#N)cc1-c1ccc(OC(F)(F)F)cc1)c1ccc(C#N)cc1 (stereo not drawn), the EC50 [1] was 2 nM and the EC50 [2] was 0.6 nM.

Nc1ccn([C@@H]2O[C@H](CO)[C@@H](O)C2(F)F)c(=O)n1 [GEMCITABINE] showed an Activity [3] of 359 mm3, a T/C [4] of 22% and an ILS at 30 mg/kg [5] of 112%.

Compound CCc1c2c(nc3ccc(OC(=O)N4CCC(N5CCCCC5)CC4)cc13)-c1cc3c(c(=O)n1C2)COC(=O)[C@]3(O)CC [IRINOTECAN] has an ILS at 50 mg/kg [6] of 200%.

In the case of NC(=O)N1CCC(CC(=O)N2CCC([C@H]3c4ncc(Br)cc4CCc4cc(Cl)cc(Br)c43)CC2)CC1 [LONAFARNIB], the IC50 [7] is reported as 7.8 nM, the IC50 [8] is reported as 4.9 nM and the IC50 [9] is reported as > 10000 nM. For the same compound, the EC50 [10] was 56 nM, the EC50 [11] was 94 nM and the EC50 [12] was 50 nM. For the same compound, the EC50 [13] was 74 nM, the EC50 [1] was 160 nM and the EC50 [14] was > 30000 nM. It also gave an EC50 [15] of 16 nM, an EC50 [16] of 49 nM and an EC50 [17] of 12 nM. The EC50 [18] was 23 nM, the EC50 [19] was 37 nM and the EC50 [20] was 210 nM. For the same compound, the “Ratio EC50” value [21] was 1.9, the “Ratio EC50” value [22] was 1.9 and the “Ratio EC50” value [23] was 1.9.

Cn1cncc1[C@@](N)(c1ccc(Cl)cc1)c1ccc2c(c1)c(-c1cccc(Cl)c1)cc(=O)n2C [TIPIFARNIB] showed an IC50 [7] of 57 nM, an IC50 [8] of 0.45 nM and an IC50 [9] of 1040 nM. For the same compound, the EC50 [10] was 3.7 nM, the EC50 [11] was 24 nM and the Activity [24] was 820 mm3. The T/C [25] was 56%, the ILS at 100 mg/kg [26] was 39% and the EC50 [1] was 2.3 nM. For the same compound, the EC50 [14] was > 30000 nM, the EC50 [15] was 0.98 nM and the EC50 [16] was 6.7 nM. The EC50 [17] was 0.69 nM, the EC50 [18] was 3.1 nM and the EC50 [19] was 0.55 nM. The EC50 [20] was 4.9 nM, the “Ratio EC50” value [21] was 4.4 and the “Ratio EC50” value [22] was 4.4. The “Ratio EC50” value [23] was 4.4.
